Experimental findings from patent US10030020B2, “Spirocycle compounds and methods of making and using same” (Abide Therapeutics, Inc., priority 2016, dated 2018) are described below.

pIC50: −log10 of the molar value.

The term pIC50 denotes the negative decadic logarithm of the IC50, by convention in mol/L. Read a high pIC50 as a low IC50.

Assay [1] concerns the target T1, MAGL (Mus musculus (Mouse), UniProt O35678). In words: Mouse brain proteomes from inhibitor treated mice (oral gavage, sacrificed 4 h after administration, ABPP analysis). Format: in vivo, mouse (C57Bl/6J). The conditions noted are these: 5 mg/kg oral gavage. The protocol:
(§1) Preparation of Mouse Brain Proteomes from Inhibitor Treated Mice.
(§2) Inhibitors were administered to wild-type C57Bl/6J by oral gavage in a vehicle, e.g. PEG400/Ethanol/PBS (7/2/1). Each animal was sacrificed 4 h following administration and brain proteomes were prepared and analyzed according to previously established methods (See Niphakis, M. J., et al. (2011) ACS Chem. Neurosci. and Long, J. Z., et al. Nat. Chem. Biol. 5:37-44). Data from this assay is shown in Table 2 (% inhibition at 5 mg/kg).

For assay [2], the target named is T2, ABHD6 (Mus musculus (Mouse), UniProt Q8R2Y0). In words: In vitro competitive activity-based protein profiling (mouse brain membrane fraction or cell lysates), ABHD6 band. The assay is classed as biochemical. To be noted: mouse proteome; for inhibition at 1 µM: read-out: ABHD6 % Inh 1 μM (mouse); for pIC50: competitive ABPP. The procedure, abridged:
(§3)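 Residual hydrolase activity was measured as gel band fluorescence after FP-Rh labelling (30 min, 37° C) of proteomes pretreated 30 min at 37° C with inhibitor.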

Assay [3] deals with T2, ABHD6. In words: Mouse brain proteomes from inhibitor treated mice (oral gavage, sacrificed 4 h after administration, ABPP analysis), ABHD6. Format: in vivo, mouse (C57Bl/6J). To be noted: 5 mg/kg oral gavage. The protocol: as §1, §2
Assay [4] has as its target T3, FAAH (Mus musculus (Mouse), UniProt O08914). In words: In vitro competitive activity-based protein profiling (mouse brain membrane fraction or cell lysates), FAAH band. The assay is classed as biochemical. To be noted: mouse proteome; for inhibition at 1 µM: read-out: FAAH % Inh 1 μM (mouse); for pIC50: competitive ABPP. The procedure, abridged:
as §3

Assay [5] addresses T1, MAGL. In words: In vitro competitive activity-based protein profiling (mouse brain membrane fraction or cell lysates), MAGL band. Format: biochemical. The conditions noted are these: mouse proteome; for inhibition at 1 µM: read-out: MAGL % Inh 1 μM (mouse); for pIC50: competitive ABPP. Here is the method:
In Vitro Competitive Activity-Based Protein Profiling.
Proteomes (mouse brain membrane fraction or cell lysates) (50 μL, 1.0 mg/mL total protein concentration) were preincubated with varying concentrations of inhibitors at 37° C. After 30 min, FP—Rh (1.0 μL, 50 μM in DMSO) was added and the mixture was incubated for another 30 min at 37° C. Reactions were quenched with SDS loading buffer (50 μL-4×) and run on SDS-PAGE.

Assay [6] addresses T3, FAAH. In words: Mouse brain proteomes from inhibitor treated mice (oral gavage, sacrificed 4 h after administration, ABPP analysis), FAAH. Format: in vivo, mouse (C57Bl/6J). The conditions noted are these: 5 mg/kg oral gavage. Here is the method:
as §1, §2

T3 sequence (O08914 whole entry): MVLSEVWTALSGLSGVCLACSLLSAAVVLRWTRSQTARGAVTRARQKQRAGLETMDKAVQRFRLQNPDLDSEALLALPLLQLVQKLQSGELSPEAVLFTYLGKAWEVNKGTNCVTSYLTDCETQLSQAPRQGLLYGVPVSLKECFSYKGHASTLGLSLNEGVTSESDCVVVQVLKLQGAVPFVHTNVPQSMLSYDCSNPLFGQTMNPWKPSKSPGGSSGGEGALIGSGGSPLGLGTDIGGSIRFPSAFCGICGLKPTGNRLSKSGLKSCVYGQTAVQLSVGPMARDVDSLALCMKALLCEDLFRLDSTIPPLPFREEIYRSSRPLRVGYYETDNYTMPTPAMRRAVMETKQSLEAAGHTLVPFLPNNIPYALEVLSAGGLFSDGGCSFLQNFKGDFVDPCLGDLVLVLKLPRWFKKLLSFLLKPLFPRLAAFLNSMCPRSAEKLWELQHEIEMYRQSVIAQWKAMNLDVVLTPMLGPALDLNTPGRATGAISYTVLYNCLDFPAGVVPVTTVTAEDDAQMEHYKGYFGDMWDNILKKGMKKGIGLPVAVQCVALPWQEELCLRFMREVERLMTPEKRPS
T1 sequence (O35678 whole entry): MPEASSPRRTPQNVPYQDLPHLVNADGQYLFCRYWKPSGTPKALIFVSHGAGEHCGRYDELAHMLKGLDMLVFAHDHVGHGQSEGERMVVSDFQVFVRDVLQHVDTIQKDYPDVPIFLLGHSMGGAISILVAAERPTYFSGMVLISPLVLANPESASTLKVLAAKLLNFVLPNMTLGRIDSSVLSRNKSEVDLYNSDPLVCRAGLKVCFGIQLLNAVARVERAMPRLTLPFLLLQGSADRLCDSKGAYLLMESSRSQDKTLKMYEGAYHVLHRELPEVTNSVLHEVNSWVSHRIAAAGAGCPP
T2 sequence (Q8R2Y0 whole entry): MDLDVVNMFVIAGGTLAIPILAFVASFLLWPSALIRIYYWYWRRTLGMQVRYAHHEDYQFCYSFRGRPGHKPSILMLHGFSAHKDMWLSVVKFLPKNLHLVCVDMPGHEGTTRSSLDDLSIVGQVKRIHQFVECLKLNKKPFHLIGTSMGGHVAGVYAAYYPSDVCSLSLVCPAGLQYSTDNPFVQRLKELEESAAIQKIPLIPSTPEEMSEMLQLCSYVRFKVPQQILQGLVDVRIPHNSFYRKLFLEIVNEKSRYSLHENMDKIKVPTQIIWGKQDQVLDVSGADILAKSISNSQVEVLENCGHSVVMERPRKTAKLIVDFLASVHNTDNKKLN

Consider `Cc1ccc(CN2CCCC23CCN(C(=O)OC(C(F)(F)F)C(F)(F)F)CC3)cc1C(F)(F)F` [Example 180, 1,1,1,3,3,3-Hexafluoropropan-2-yl 1-(4-methyl-3-(trifluoromethyl)benzyl)-1,8-diazaspiro[4.5]decane-8-carboxylate], for which, on MAGL [1], the “MAGL % Inh 5 mg/kg (mouse)” value was “### (### is ≥75%)”. Moreover, the inhibition at 1 µM on ABHD6 [2] is under 25%; at FAAH [4], under 25%; on MAGL [5], over 75%. Besides, the pIC50 at ABHD6 [2] is under 6.00; at FAAH [4] it was under 6.00; on MAGL [5] it was over 7.00. Moreover, the “ABHD6 % Inh 5 mg/kg (mouse)” value at ABHD6 [3] was “## (## is equal to or greater than 25% but less than 75%)”. In addition, the “FAAH % Inh 5 mg/kg (mouse)” value at FAAH [6] is recorded as “## (## is equal to or greater than 25% but less than 75%)”.

Turning to `O=C(OC(C(F)(F)F)C(F)(F)F)N1CCC2(CCCN2Cc2ccc(Cl)c(N3CCCC3)c2)CC1` [Example 132, 1,1,1,3,3,3-Hexafluoropropan-2-yl 1-(4-chloro-3-(pyrrolidin-1-yl)benzyl)-1,8-diazaspiro[4.5]decane-8-carboxylate], the “MAGL % Inh 5 mg/kg (mouse)” value at MAGL [1] is “### (### is ≥75%)”. The values for the inhibition at 1 µM on ABHD6 [2], on FAAH [4] and on MAGL [5] were under 25%, under 25% and over 75%, respectively. In addition, the results for the pIC50 at ABHD6 [2], at FAAH [4] and on MAGL [5] were under 6.00, under 6.00 and over 7.00, respectively. At ABHD6 [3], the “ABHD6 % Inh 5 mg/kg (mouse)” value is on record as “# (# is <25%)”. Further, on FAAH [6], the “FAAH % Inh 5 mg/kg (mouse)” value was “# (# is <25%)”.

On to `COc1ccc(F)cc1CN1CCCC12CCN(C(=O)OC(C(F)(F)F)C(F)(F)F)CC2` [Example 8, 1,1,1,3,3,3-Hexafluoropropan-2-yl 1-(5-fluoro-2-methoxybenzyl)-1,8-diazaspiro[4.5]decane-8-carboxylate], for which, at MAGL [1], the “MAGL % Inh 5 mg/kg (mouse)” value was “### (### is ≥75%)”. Further, the pIC50 was under 6.00 on ABHD6 [2], under 6.00 at FAAH [4] and over 7.00 at MAGL [5]. Besides, the “ABHD6 % Inh 5 mg/kg (mouse)” value at ABHD6 [3] is listed as “## (## is equal to or greater than 25% but less than 75%)”. In addition, on FAAH [6], the “FAAH % Inh 5 mg/kg (mouse)” value was “## (## is equal to or greater than 25% but less than 75%)”.

On to `O=C(OC(C(F)(F)F)C(F)(F)F)N1CCC2(CCCN2Cc2ccc(N3CCCC3)c(Cl)c2)CC1` [Example 128, 1,1,1,3,3,3-Hexafluoropropan-2-yl 1-(3-chloro-4-(pyrrolidin-1-yl)benzyl)-1,8-diazaspiro[4.5]decane-8-carboxylate], for which, at MAGL [1], the “MAGL % Inh 5 mg/kg (mouse)” value is on record as “### (### is ≥75%)”. The inhibition at 1 µM on ABHD6 [2] is under 25%; at FAAH [4], under 25%; at MAGL [5], over 75%. Moreover, the values for the pIC50 on ABHD6 [2], at FAAH [4] and on MAGL [5] were under 6.00, under 6.00 and over 7.00, respectively. Besides, the “ABHD6 % Inh 5 mg/kg (mouse)” value on ABHD6 [3] was “# (# is <25%)”. Also, on FAAH [6], the “FAAH % Inh 5 mg/kg (mouse)” value is given as “# (# is <25%)”.

Consider `O=C(OC(C(F)(F)F)C(F)(F)F)N1CCC2(CCN(Cc3ccc(Cl)cc3N3CC4COCC4C3)C2)CC1` (stereo not drawn) [Example 25, 1,1,1,3,3,3-Hexafluoropropan-2-yl 2-(4-chloro-2-(tetrahydro-1H-furo[3,4-c]pyrrol-5(3H)-yl)benzyl)-2,8-diazaspiro[4.5]decane-8-carboxylate], for which the “MAGL % Inh 5 mg/kg (mouse)” value at MAGL [1] is listed as “## (## is equal to or greater than 25% but less than 75%)”. The inhibition at 1 µM on ABHD6 [2] is at least 75%; at FAAH [4], under 25%; at MAGL [5], over 75%. In addition, the pIC50 at ABHD6 [2] is 6.00 to 7.00; at FAAH [4], under 6.00; on MAGL [5], over 7.00. Besides, at ABHD6 [3], the “ABHD6 % Inh 5 mg/kg (mouse)” value is on record as “# (# is <25%)”. Moreover, at FAAH [6], the “FAAH % Inh 5 mg/kg (mouse)” value is reported as “# (# is <25%)”.

As to `CC(=O)NC1CCN(c2cc(Cl)ccc2CN2CCCC23CCN(C(=O)OC(C(F)(F)F)C(F)(F)F)CC3)CC1` [Example 104, 1,1,1,3,3,3-Hexafluoropropan-2-yl 1-(2-(4-acetamidopiperidin-1-yl)-4-chlorobenzyl)-1,8-diazaspiro[4.5]decane-8-carboxylate], the “MAGL % Inh 5 mg/kg (mouse)” value at MAGL [1] was “## (## is equal to or greater than 25% but less than 75%)”. Also, the inhibition at 1 µM was under 25% at ABHD6 [2], 25 to 75% at FAAH [4] and over 75% on MAGL [5]. In addition, the values for the pIC50 on ABHD6 [2], at FAAH [4] and on MAGL [5] were under 6.00, under 6.00 and over 7.00, respectively. The “ABHD6 % Inh 5 mg/kg (mouse)” value on ABHD6 [3] was “# (# is <25%)”. On FAAH [6], the “FAAH % Inh 5 mg/kg (mouse)” value is given as “# (# is <25%)”.

Consider `O=C(OC(C(F)(F)F)C(F)(F)F)N1CCC2(CCCN2Cc2ccc(Cl)cc2N2CCC(F)CC2)CC1` [Example 102, 1,1,1,3,3,3-Hexafluoropropan-2-yl 1-(4-chloro-2-(4-fluoropiperidin-1-yl)benzyl)-1,8-diazaspiro[4.5]decane-8-carboxylate], for which, at MAGL [1], the “MAGL % Inh 5 mg/kg (mouse)” value is “### (### is ≥75%)”. For the same molecule, the inhibition at 1 µM was under 25% on ABHD6 [2], under 25% at FAAH [4] and over 75% on MAGL [5]. For the same molecule, the results for the pIC50 at ABHD6 [2], on FAAH [4] and at MAGL [5] were under 6.00, under 6.00 and over 7.00, respectively. For the same molecule, the “ABHD6 % Inh 5 mg/kg (mouse)” value at ABHD6 [3] is “# (# is <25%)”. Moreover, the “FAAH % Inh 5 mg/kg (mouse)” value at FAAH [6] is “# (# is <25%)”.

For `O=C(OC(C(F)(F)F)C(F)(F)F)N1CCC2(CCCN2Cc2cc(N3CCC3)cc(C(F)(F)F)c2)CC1` [Example 47, 1,1,1,3,3,3-Hexafluoropropan-2-yl 1-(3-(azetidin-1-yl)-5-(trifluoromethyl)benzyl)-1,8-diazaspiro[4.5]decane-8-carboxylate], the “MAGL % Inh 5 mg/kg (mouse)” value at MAGL [1] is on record as “### (### is ≥75%)”. Besides, the inhibition at 1 µM is under 25% at ABHD6 [2], under 25% at FAAH [4] and over 75% at MAGL [5]. For the same molecule, the pIC50 on ABHD6 [2] was under 6.00; on FAAH [4], under 6.00; on MAGL [5], over 7.00. Besides, the “ABHD6 % Inh 5 mg/kg (mouse)” value at ABHD6 [3] is “# (# is <25%)”. Besides, the “FAAH % Inh 5 mg/kg (mouse)” value at FAAH [6] is “# (# is <25%)”.

`O=C(OC(C(F)(F)F)C(F)(F)F)N1CCC2(CCN(Cc3ccc(Cl)cc3N3CCCC3)C2)CC1` [Example 17, 1,1,1,3,3,3-Hexafluoropropan-2-yl 2-(4-chloro-2-(pyrrolidin-1-yl)benzyl)-2,8-diazaspiro[4.5]decane-8-carboxylate]: the “MAGL % Inh 5 mg/kg (mouse)” value on MAGL [1] is “## (## is equal to or greater than 25% but less than 75%)”. The inhibition at 1 µM on ABHD6 [2] is at least 75%; on FAAH [4] it was under 25%; on MAGL [5], over 75%. Also, the pIC50 on ABHD6 [2] was under 6.00; at FAAH [4] it was under 6.00; at MAGL [5], over 7.00. For the same molecule, at ABHD6 [3], the “ABHD6 % Inh 5 mg/kg (mouse)” value is “# (# is <25%)”. Moreover, the “FAAH % Inh 5 mg/kg (mouse)” value on FAAH [6] was “# (# is <25%)”.

For `Cc1cc(CN2CCCC23CCN(C(=O)OC(C(F)(F)F)C(F)(F)F)CC3)ccc1C(F)(F)F` [Example 177, 1,1,1,3,3,3-Hexafluoropropan-2-yl 1-(3-methyl-4-(trifluoromethyl)benzyl)-1,8-diazaspiro[4.5]decane-8-carboxylate], on MAGL [1], the “MAGL % Inh 5 mg/kg (mouse)” value was “### (### is ≥75%)”. The inhibition at 1 µM was 25 to 75% on ABHD6 [2], under 25% on FAAH [4] and over 75% on MAGL [5]. Besides, the negative logarithm of the IC50 (pIC50) at ABHD6 [2] was under 6.00; at FAAH [4], under 6.00; on MAGL [5] it was 6.00 to 7.00. The “ABHD6 % Inh 5 mg/kg (mouse)” value at ABHD6 [3] is given as “# (# is <25%)”. For the same molecule, at FAAH [6], the “FAAH % Inh 5 mg/kg (mouse)” value is on record as “# (# is <25%)”.
